In article PMC5268738, “A sequential multi-target Mps1 phosphorylation cascade promotes spindle checkpoint signaling” (eLife, 2017):

What was measured:
[1] = system: Bub1 S459 phosphorylation in HeLa cells; conditions: nocodazole and MG132; reversine 1 µM
Experimental: HeLa Tet-On cells were initially purchased from Clontech (Mountain View, CA), and were cultured in Dulbecco’s Modified Eagle Medium (DMEM, Invitrogen, Carlsbad, CA) supplemented with 10% fetal bovine serum and 2 mM L-glutamine. The cells were authenticated by genome sequencing and metaphase chromosome spread, and were routinely checked by 4',6-diamidino-2-phenylindole (DAPI) staining to ascertain that they were free of mycoplasma contamination. For G1/S synchronization, cells were treated with 2 mM thymidine (Sigma, St. Louis, MO) for 14–16 hr. For mitotic arrest, cells were treated with 330 nM or 1 µM nocodazole (Sigma) or 100 nM taxol (Sigma) for 12–14 hr. Other chemicals used in this study were: RO3306 (Sigma) at 20 µM, BI 2536 (Selleck Chemicals, Houston, TX) at 1 µM, MG132 (Selleck Chemicals) at 10 µM, okadaic acid (LC lab, Woburn, MA) at 500 nM, and reversine (Cayman Chemical, Ann Arbor, MI) at 1 µM.

APC/C^Cdc20 = APC/C^Cdc20 inhibition by MCC components (securin ubiquitination assay); format: biochemical, Xenopus APC/C, human Cdc20; conditions: Bub1–Mad1 mixture, Cdc20^ΔN60, Mad2^Mono, BubR1^N; reversine 10 μM where used
[2] = system: N-terminal fragment of Cdc20 (residues 1–170, Cdc20^N); assay: in vitro pull-down of Mps1-treated Mad1^E–Mad2 by Cdc20^N beads; format: binding, human; conditions: Ni^2+ beads with Cdc20^N170-His6; Mad1 pre-treated with kinase domain of Mps1; anti-Mad1 blot
Experimental: Expression of Cdc20-His6 proteins containing the N-terminal regions of Cdc20 was induced by 1 mM isopropyl β-D-1-thiogalactopyranoside (IPTG) at 37 °C for 6 h. Harvested pellets were lysed in denaturing lysis buffer (100 mM NaH2PO4, 10 mM Tris-HCl, pH 8.0, 8 M Urea), and incubated overnight by gentle rocking at room temperature. After centrifugation, the supernatants were incubated with pre-equilibrated Ni^2+-NTA beads (Qiagen). Protein-bound beads were washed with 15 volumes of denaturing wash buffer (100 mM NaH2PO4, 10 mM Tris-HCl, pH 6.3, 8 M Urea). The proteins were then eluted with denaturing elution buffer (100 mM NaH2PO4, 10 mM Tris-HCl, pH 4.5, 8 M Urea). The eluted proteins were then dialyzed into the storage buffer (50 mM Tris, pH 8.0, 200 mM NaCl, 5% glycerol, 1 mM β-mercaptoethanol). […]
For kinase assays, 1 μM Cdc20^ΔN60, 40 μM Mad1^E–Mad2, or 400 nM Bub1^ΔK–Bub3 was incubated with 40 nM Bub1, 500 nM Mps1, and/or 50 nM Cdk1–Cyclin B1 at room temperature for 30 min in the kinase buffer (25 mM Tris-HCl, pH 7.7, 100 mM NaCl, 10 mM MgCl2, 5 mM NaF, 20 mM β-glycerophosphate, 0.1 mM Na3VO4 and 1 mM DTT) supplemented with 1 mM ATP. The reaction mixtures were stopped with the appropriate kinase inhibitors for further protein-binding assays, or quenched with the SDS loading buffer and analyzed by Coomassie blue staining or Western blotting. […]

binding of Mps1-treated Mad1^E–Mad2 to Cdc20^N (in words) [2]: greatly reduced this interaction
SMILES: c1nc2nc(Nc3ccc(N4CCOCC4)cc3)nc(NC3CCCCC3)c2[nH]1 [reversine, reference compound]
Bub1 S459 phosphorylation in mitosis (in words) [1]: reduced
APC/C^Cdc20 inhibition by the MCC mixture with Bub1–Mad1 mixture (in words) (APC/C^Cdc20): greatly weakened APC/C^Cdc20 inhibition by the MCC mixture
